Laboratory results taken from EPA's CvTdb concentration-time database.
Each block holds one compound with its values, some of them ahead of it.

How the values were obtained:
Rat [1] = test: concentration in liver after dosing; conditions: 864 h; dosed: Perfluorodecanoic acid; 10 mg/kg; oral; Female; Harlan Sprague Dawley
Rat [2] = test: concentration in plasma after dosing; conditions: dosed: Perfluorodecanoic acid, 2 mg/kg, iv, Male, F344
Rat [3] = test: concentration in kidney after dosing; conditions: 1848 h; dosed: Perfluorodecanoic acid; 10 mg/kg; oral; Female; Harlan Sprague Dawley
Rat [4] = test: concentration in brain after dosing; conditions: 1848 h; dosed: Perfluorodecanoic acid; 10 mg/kg; oral; Male; Harlan Sprague Dawley
Rat [5] = test: concentration in kidney after dosing; conditions: 864 h; dosed: Perfluorodecanoic acid; 10 mg/kg; oral; Male; Harlan Sprague Dawley
Rat [6] = test: concentration in kidney after dosing; conditions: 1848 h; dosed: Perfluorodecanoic acid; 10 mg/kg; oral; Male; Harlan Sprague Dawley
Rat [7] = test: concentration in plasma after dosing; conditions: 10 h; dosed: Di-n-butyl phthalate; 50 mg/kg; oral; Male; Sprague-Dawley
Rat [8] = test: concentration in plasma after dosing; conditions: 20 min; dosed: dichloroacetic acid; 10 mg/kg; iv; Male; F344
Rat [9] = test: concentration in plasma after dosing; conditions: dosed: dichloroacetic acid, 10 mg/kg, oral, Male, Harlan Sprague Dawley
Rat [10] = test: concentration in plasma after dosing; conditions: dosed: dichloroacetic acid, 40 mg/kg, oral, Female, Harlan Sprague Dawley
Rat [11] = test: concentration in plasma after dosing; conditions: dosed: Wyeth-14643, 2.0 mg/kg, oral, Male, Sprague-Dawley
Rat [12] = test: concentration in plasma after dosing; conditions: 3 h; dosed: Wyeth-14643; 1.0 mg/kg; oral; Male; Sprague-Dawley
Rat [13] = test: concentration in plasma after dosing; conditions: dosed: Wyeth-14643, 1.0 mg/kg, oral, Male, Sprague-Dawley
Rat [14] = test: concentration in plasma after dosing; conditions: dosed: Bis 2-Chloroethoxy Methane, 40 mg/kg, iv, Male, Harlan Sprague Dawley
Rat [15] = test: concentration in liver after dosing; conditions: 2 h; dosed: Bis 2-Chloroethoxy Methane; 20 mg/kg; iv; Male; F344
Rat [16] = test: concentration in heart after dosing; conditions: 4 h; dosed: Bis 2-Chloroethoxy Methane; 20 mg/kg; iv; Male; F344
Rat [17] = test: concentration in liver after dosing; conditions: 10 min; dosed: Bis 2-Chloroethoxy Methane; 20 mg/kg; iv; Female; F344
Rat [18] = test: concentration in plasma after dosing; conditions: dosed: Bis 2-Chloroethoxy Methane, 40 mg/kg, iv, Male, Harlan Sprague Dawley; remark: listed apart in the source
Rat [19] = test: concentration in kidney after dosing; conditions: 6 h; dosed: Fluorotelomer alcohol 8+2; 80 mg/kg; oral; Female; Harlan Sprague Dawley
Rat [20] = test: concentration in liver after dosing; conditions: 0.5 h; dosed: Fluorotelomer alcohol 8+2; 24 mg/kg; oral; Male; Harlan Sprague Dawley
Rat [21] = test: concentration in plasma after dosing; conditions: dosed: Fluorotelomer alcohol 8+2, 12 mg/kg, iv, Male, F344
Rat [22] = test: concentration in brain after dosing; conditions: 0.5 h; dosed: Fluorotelomer alcohol 8+2; 80 mg/kg; oral; Female; Harlan Sprague Dawley
Rat [23] = test: concentration in heart after dosing; conditions: 5.333 h; dosed: Thiodiglycolic Acid; 20 mg/kg; iv; Male; Harlan Sprague Dawley
Rat [24] = test: concentration in plasma after dosing; conditions: 20 min; dosed: Thiodiglycolic Acid; 20 mg/kg; iv; Female; F344
Rat [25] = test: concentration in thymus after dosing; conditions: 6.667 h; dosed: Thiodiglycolic Acid; 20 mg/kg; iv; Female; Harlan Sprague Dawley
Rat [26] = test: concentration in heart after dosing; conditions: 1 h; dosed: Thiodiglycolic Acid; 20 mg/kg; iv; Male; Harlan Sprague Dawley
Rat [27] = test: concentration in liver after dosing; conditions: 4 h; dosed: Thiodiglycolic Acid; 20 mg/kg; iv; Male; Harlan Sprague Dawley
Rat [28] = test: concentration in thymus after dosing; conditions: 5.333 h; dosed: Thiodiglycolic Acid; 20 mg/kg; iv; Female; Harlan Sprague Dawley
Rat [29] = test: concentration in liver after dosing; conditions: 8 h; dosed: Thiodiglycolic Acid; 20 mg/kg; iv; Female; Harlan Sprague Dawley
Rat [30] = test: concentration in plasma after dosing; conditions: 9 h; dosed: Primidone; 30 mg/kg; oral; Male; F344
Rat [31] = test: concentration in plasma after dosing; conditions: 6 h; dosed: Primidone; 130 mg/kg; oral; Female; F344
Rat [32] = test: concentration in plasma after dosing; conditions: 12 h; dosed: Primidone; 30 mg/kg; oral; Male; F344
Rat [33] = test: concentration in plasma after dosing; conditions: 0.5 h; dosed: Primidone; 130 mg/kg; oral; Female; F344

Compound: O=C(O)C(F)(F)C(F)(F)C(F)(F)C(F)(F)C(F)(F)C(F)(F)C(F)(F)C(F)(F)C(F)(F)F [Perfluorodecanoic acid]
concentration in liver (Rat [1]): 59300 ng/g
concentration in plasma (Rat [2]; 12 h): 4670 ng/mL
concentration in plasma (Rat [2]; 1200 h): 1400 ng/mL
concentration in kidney (Rat [3]): 11800 ng/g
concentration in brain (Rat [4]): 531 ng/g
concentration in kidney (Rat [5]): 6720 ng/g
concentration in kidney (Rat [6]): 6050 ng/g

Compound: CCCCOC(=O)c1ccccc1C(=O)O [Mono-n-butyl phthalate]
concentration in plasma (Rat [7]): 1.17 µg/mL

Compound: O=C(O)C(Cl)Cl [dichloroacetic acid]
concentration in plasma (Rat [8]): 2.26 µg/mL
concentration in plasma (Rat [9]; 2 min): 0.399 µg/mL
concentration in plasma (Rat [9]; 0.5 h): 0.637 µg/mL
concentration in plasma (Rat [10]; 20 min): 8.11 µg/mL
concentration in plasma (Rat [10]; 2 h): 2.69 µg/mL

concentration in plasma (Rat [11]; 1 h): 0.513 µg/mL
concentration in plasma (Rat [11]; 6 h): 0.169 µg/mL
concentration in plasma (Rat [12]): 0.18 µg/mL
concentration in plasma (Rat [13]; 2 h): 0.709 µg/mL
concentration in plasma (Rat [13]; 8 h): 0.189 µg/mL
Compound: Cc1cccc(Nc2cc(Cl)nc(SCC(=O)O)n2)c1C

Compound: ClCCOCOCCCl [Bis 2-Chloroethoxy Methane]
concentration in plasma (Rat [14]; 20 min): 8380 ng/mL
concentration in plasma (Rat [14]; 6.667 h): 25.4 ng/mL
concentration in liver (Rat [15]): 135 ng/g
concentration in heart (Rat [16]): 112 ng/g
concentration in liver (Rat [17]): 973 ng/g
concentration in plasma (Rat [18]; 10 min): 22300 ng/mL
concentration in plasma (Rat [18]; 5.333 h): 72.8 ng/mL

concentration in kidney (Rat [19]): 834 ng/g
concentration in liver (Rat [20]): 7210 ng/g
concentration in plasma (Rat [21]; 1 h): 662 ng/mL
concentration in plasma (Rat [21]; 6 h): 38.1 ng/mL
concentration in brain (Rat [22]): 4390 ng/g
Compound: OCCC(F)(F)C(F)(F)C(F)(F)C(F)(F)C(F)(F)C(F)(F)C(F)(F)C(F)(F)F [Fluorotelomer alcohol 8+2]

Compound: O=C(O)CSCC(=O)O [Thiodiglycolic Acid]
concentration in heart (Rat [23]): 383 ng/g
concentration in plasma (Rat [24]): 7410 ng/mL
concentration in thymus (Rat [25]): 329 ng/g
concentration in heart (Rat [26]): 1930 ng/g
concentration in liver (Rat [27]): 43400 ng/g
concentration in thymus (Rat [28]): 372 ng/g
concentration in liver (Rat [29]): 737 ng/g

Compound: CCC1(c2ccccc2)C(=O)NC(=O)NC1=O [Phenobarbital]
concentration in plasma (Rat [30]): 2.93 µg/mL
concentration in plasma (Rat [31]): 2.21 µg/mL
concentration in plasma (Rat [32]): 2.66 µg/mL
concentration in plasma (Rat [33]): 1.14 µg/mL
